PubChem BioAssay (NCI)
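A five-concentration, 48-hour dose response in 96-well plates underlies each endpoint, interpolated linearly between surrounding concentrations. TGI: total growth inhibition.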

Tests used:
Experiment in all cases: NCI-60 cell line screen, 48 h
UACC-257 melanoma = system: UACC-257 melanoma
SF-295 CNS = system: SF-295 CNS
HS 578T breast = system: HS 578T breast
K-562 leukemia = system: K-562 leukemia
SNB-75 CNS = system: SNB-75 CNS
NCI/ADR-RES ovarian = system: NCI/ADR-RES ovarian
HCC-2998 colon = system: HCC-2998 colon
UACC-62 melanoma = system: UACC-62 melanoma
U251 CNS = system: U251 CNS
HT29 colon = system: HT29 colon
COLO 205 colon = system: COLO 205 colon
SF-539 CNS = system: SF-539 CNS
SNB-19 CNS = system: SNB-19 CNS
IGROV1 ovarian = system: IGROV1 ovarian
SK-MEL-2 melanoma = system: SK-MEL-2 melanoma
KM12 colon = system: KM12 colon
PC-3 prostate = system: PC-3 prostate
OVCAR-3 ovarian = system: OVCAR-3 ovarian
NCI-H23 lung = system: NCI-H23 lung
ACHN renal = system: ACHN renal
OVCAR-4 ovarian = system: OVCAR-4 ovarian
HCT-116 colon = system: HCT-116 colon
DU-145 prostate = system: DU-145 prostate
CAKI-1 renal = system: CAKI-1 renal
RXF 393 renal = system: RXF 393 renal
MOLT-4 leukemia = system: MOLT-4 leukemia
EKVX NSCLC = system: EKVX NSCLC
SK-MEL-5 melanoma = system: SK-MEL-5 melanoma
CCRF-CEM leukemia = system: CCRF-CEM leukemia
UO-31 renal = system: UO-31 renal
HL-60(TB) leukemia = system: HL-60(TB) leukemia
BT-549 breast = system: BT-549 breast
OVCAR-5 ovarian = system: OVCAR-5 ovarian
NCI-H522 lung = system: NCI-H522 lung
T-47D breast = system: T-47D breast
HOP-92 NSCLC = system: HOP-92 NSCLC
RPMI-8226 leukemia = system: RPMI-8226 leukemia
M14 melanoma = system: M14 melanoma
LOX IMVI melanoma = system: LOX IMVI melanoma
OVCAR-8 ovarian = system: OVCAR-8 ovarian
MCF7 breast = system: MCF7 breast
HOP-62 NSCLC = system: HOP-62 NSCLC
MDA-MB-231 breast = system: MDA-MB-231 breast
TK-10 renal = system: TK-10 renal
SK-OV-3 ovarian = system: SK-OV-3 ovarian
NCI-H226 lung = system: NCI-H226 lung
SR leukemia = system: SR leukemia
HCT-15 colon = system: HCT-15 colon
A549 NSCLC = system: A549 NSCLC
SW-620 colon = system: SW-620 colon
NCI-H460 lung = system: NCI-H460 lung
SF-268 CNS = system: SF-268 CNS
SK-MEL-28 melanoma = system: SK-MEL-28 melanoma
MDA-N = system: MDA-N
SN12C renal = system: SN12C renal
786-0 renal = system: 786-0 renal
MDA-MB-435 = system: MDA-MB-435

Cc1cc(O)c(C=NC(=S)C(N)=S)c(=O)o1
TGI (UACC-257 melanoma): > 100 µM | TGI (SF-295 CNS): > 100 µM | TGI (HS 578T breast): > 100 µM | TGI (K-562 leukemia): > 100 µM | TGI (SNB-75 CNS): > 100 µM | TGI (NCI/ADR-RES ovarian): > 100 µM | TGI (HCC-2998 colon): > 100 µM | TGI (UACC-62 melanoma): > 100 µM | TGI (U251 CNS): > 100 µM | TGI (HT29 colon): > 100 µM | TGI (COLO 205 colon): > 100 µM | TGI (SF-539 CNS): > 100 µM | TGI (SNB-19 CNS): > 100 µM | TGI (IGROV1 ovarian): > 100 µM | TGI (SK-MEL-2 melanoma): > 100 µM | TGI (KM12 colon): > 100 µM | TGI (PC-3 prostate): > 100 µM | TGI (OVCAR-3 ovarian): > 100 µM | TGI (NCI-H23 lung): > 100 µM | TGI (ACHN renal): > 100 µM | TGI (OVCAR-4 ovarian): > 100 µM | TGI (HCT-116 colon): > 100 µM | TGI (DU-145 prostate): > 100 µM | TGI (CAKI-1 renal): > 100 µM | TGI (RXF 393 renal): > 100 µM | TGI (MOLT-4 leukemia): > 30.1 µM | TGI (EKVX NSCLC): > 100 µM | TGI (SK-MEL-5 melanoma): > 100 µM | TGI (CCRF-CEM leukemia): > 100 µM | TGI (UO-31 renal): > 100 µM | TGI (HL-60(TB) leukemia): > 100 µM | TGI (BT-549 breast): > 100 µM | TGI (OVCAR-5 ovarian): > 100 µM | TGI (NCI-H522 lung): > 100 µM | TGI (T-47D breast): > 100 µM | TGI (HOP-92 NSCLC): > 100 µM | TGI (RPMI-8226 leukemia): > 100 µM | TGI (M14 melanoma): > 100 µM | TGI (LOX IMVI melanoma): > 100 µM | TGI (OVCAR-8 ovarian): > 100 µM | TGI (MCF7 breast): > 100 µM | TGI (HOP-62 NSCLC): > 100 µM | TGI (MDA-MB-231 breast): > 100 µM | TGI (TK-10 renal): > 100 µM | TGI (SK-OV-3 ovarian): > 100 µM | TGI (NCI-H226 lung): > 100 µM | TGI (SR leukemia): > 100 µM | TGI (HCT-15 colon): > 100 µM | TGI (A549 NSCLC): > 100 µM | TGI (SW-620 colon): > 100 µM | TGI (NCI-H460 lung): > 100 µM | TGI (SF-268 CNS): > 100 µM | TGI (SK-MEL-28 melanoma): > 100 µM | TGI (MDA-N): > 100 µM | TGI (SN12C renal): > 100 µM | TGI (786-0 renal): > 100 µM | TGI (MDA-MB-435): > 100 µM
